Source: ChEMBL document CHEMBL1156305 (Bioorg Med Chem Lett, 2010)
Activity calls are given as the source filed them. The calls are words filed in the database; no cut-off is given here.

Tests used:
[1] = biological target: T1, 5-hydroxytryptamine receptor 2C (Homo sapiens, UniProt P28335); experiment: Binding affinity to 5HT2C receptor
T1 sequence (P28335 whole entry): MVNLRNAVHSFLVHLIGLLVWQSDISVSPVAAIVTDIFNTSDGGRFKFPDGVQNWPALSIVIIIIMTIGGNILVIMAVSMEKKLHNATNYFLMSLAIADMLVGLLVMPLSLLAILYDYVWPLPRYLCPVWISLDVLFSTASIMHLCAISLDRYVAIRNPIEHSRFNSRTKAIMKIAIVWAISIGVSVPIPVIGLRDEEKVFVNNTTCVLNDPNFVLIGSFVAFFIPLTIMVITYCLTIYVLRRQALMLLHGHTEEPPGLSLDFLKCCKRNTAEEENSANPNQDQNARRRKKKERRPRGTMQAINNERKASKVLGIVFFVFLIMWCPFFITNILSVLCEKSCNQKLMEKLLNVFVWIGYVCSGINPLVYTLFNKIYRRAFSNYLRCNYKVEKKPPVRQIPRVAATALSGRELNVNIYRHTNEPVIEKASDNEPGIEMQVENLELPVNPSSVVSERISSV

[2] = biological target: T2, 5-hydroxytryptamine receptor 2B (Homo sapiens, UniProt P41595); experiment: Binding affinity to 5HT2B receptor
T2 sequence (P41595 whole entry): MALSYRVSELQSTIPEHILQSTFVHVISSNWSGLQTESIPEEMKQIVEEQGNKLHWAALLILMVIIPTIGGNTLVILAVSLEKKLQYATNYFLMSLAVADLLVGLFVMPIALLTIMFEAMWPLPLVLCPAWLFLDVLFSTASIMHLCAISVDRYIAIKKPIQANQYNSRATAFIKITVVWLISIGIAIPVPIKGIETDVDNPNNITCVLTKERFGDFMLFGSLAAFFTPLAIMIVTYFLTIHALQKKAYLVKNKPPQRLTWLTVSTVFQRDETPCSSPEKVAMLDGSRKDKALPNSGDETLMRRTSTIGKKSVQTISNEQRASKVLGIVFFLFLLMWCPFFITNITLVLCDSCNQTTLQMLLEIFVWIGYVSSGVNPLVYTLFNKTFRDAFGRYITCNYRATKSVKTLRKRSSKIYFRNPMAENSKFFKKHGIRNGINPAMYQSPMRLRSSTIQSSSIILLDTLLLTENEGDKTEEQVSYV

[3] = Half life in human liver microsomes; assay type: ADME, Microsome
[4] = biological target: T3, 5-hydroxytryptamine receptor 2A (Homo sapiens, UniProt P28223); experiment: Binding affinity to 5HT2A receptor
T3 sequence (P28223 whole entry): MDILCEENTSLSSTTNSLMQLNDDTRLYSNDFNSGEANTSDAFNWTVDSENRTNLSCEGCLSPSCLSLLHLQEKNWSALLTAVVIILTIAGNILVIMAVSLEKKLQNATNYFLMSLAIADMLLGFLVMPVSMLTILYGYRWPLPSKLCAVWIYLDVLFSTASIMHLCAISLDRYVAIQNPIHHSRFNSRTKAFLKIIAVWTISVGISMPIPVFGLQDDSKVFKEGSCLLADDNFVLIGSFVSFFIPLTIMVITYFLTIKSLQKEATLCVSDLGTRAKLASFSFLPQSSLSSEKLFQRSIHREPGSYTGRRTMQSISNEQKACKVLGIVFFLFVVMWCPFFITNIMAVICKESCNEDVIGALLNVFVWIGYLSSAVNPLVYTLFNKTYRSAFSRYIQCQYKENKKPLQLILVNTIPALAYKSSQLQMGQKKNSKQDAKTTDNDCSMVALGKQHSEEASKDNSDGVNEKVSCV

Macaca mulatta = species: Macaca mulatta; experiment: Activity at MAPK in monkey heart valve […] cells
[5] = biological target: T3, 5-hydroxytryptamine receptor 2A; experiment: Agonist activity at 5HT2A receptor relative to control; assay type: functional
[6] = biological target: T3, 5-hydroxytryptamine receptor 2A; experiment: Agonist activity at 5HT2A receptor; assay type: functional
Plasma = experiment: Fraction unbound in Sprague-Dawley rat plasma; assay type: ADME, cell-free
[7] = biological target: T2, 5-hydroxytryptamine receptor 2B; experiment: Agonist activity at 5HT2B receptor; assay type: functional
[8] = Bioavailability in rat; assay type: ADME, organism-based; settings: in vivo
[9] = Ratio of drug level in RBC to plasma in Sprague-Dawley rat; assay type: ADME; settings: in vivo
[10] = Selectivity ratio of Ki for 5HT2B receptor to Ki for 5HT2C receptor
Rattus norvegicus [11] = experiment: Inhibition of spontaneous nocturnal food intake in po dosed Sprague-Dawley rat measured up to 25 hrs; assay type: functional, organism-based
[12] = Ratio of total drug level in brain to plasma in Sprague-Dawley rat; assay type: ADME, cell-free; settings: brain and plasma
[13] = biological target: T4, 5-hydroxytryptamine receptor 2C (Homo sapiens) (UniProt P28335); experiment: Agonist activity at 5HT2C receptor relative to control; assay type: functional; parameters: concentration or dose not given beside the values
T4 sequence (whole entry): T1 sequence (P28335 whole entry)

[14] = Bioavailability in dog; assay type: ADME, organism-based, Canis lupus familiaris; settings: in vivo
Rattus norvegicus [15] = experiment: Inhibition of spontaneous nocturnal food intake in po dosed Sprague-Dawley rat measured up to 840 mins; assay type: functional, organism-based
Rattus norvegicus [16] = species: Rattus norvegicus; experiment: Ex vivo agonist activity at 5HT2B receptor in rat stomach fundus; assay type: functional, organism-based
[17] = biological target: T1, 5-hydroxytryptamine receptor 2C; experiment: Agonist activity at 5HT2C receptor; assay type: functional
[18] = Ratio of free drug level in brain to plasma in Sprague-Dawley rat; assay type: ADME, cell-free; settings: brain and plasma
Rattus norvegicus [19] = species: Rattus norvegicus; experiment: Effect on 5HT2A receptor-mediated head twitches in rat; assay type: functional, organism-based
[20] = Half life in human hepatocytes; assay type: ADME, cell-based, Liver, Hepatocyte

O=C(NCc1ccc(OC(F)(F)F)cc1)C1CCNC1 (centres undefined)
Ki [1]: 643 nM

C[C@@H]1CNC[C@H](C)N1C(=O)OCc1ccccc1
Ki [1]: 83 nM

Cc1noc(C)c1COc1cc(F)c(COC(=O)N2[C@H](C)CNC[C@@H]2C)c(F)c1
Ki ([2]; read-out: Ki): > 10000 nM
Ki [1]: 43 nM

COc1cc(OC2CCC(C)(C)CC2)c(F)cc1CNC(=O)[C@@H]1CCCN1
half-life [3]: 1.67 h
Ki ([4]; read-out: Ki): 12.8 nM
Activity (Macaca mulatta): inactive
Activity [5]: 76%
EC50 [6]: 440 nM
fraction unbound (Plasma): 3.6%
EC50 [7]: > 10000 nM
bioavailability [8]: 5.5%
Ratio [9]: 0.7
Ratio Ki [10]: 10000
Activity (Rattus norvegicus [11]): Dose-dependent effect
Kp [12]: 10
Ki ([2]; read-out: Ki): 3940 nM
Activity [13]: 95%
bioavailability [14]: 5.5%
Activity (Rattus norvegicus [15]): Dose-dependent effect
Ki [1]: 0.9 nM
Activity (Rattus norvegicus [16]): inactive
EC50 [17]: 2.3 nM
Kp uu [18]: 0.4
Activity (Rattus norvegicus [19]): inactive
half-life [20]: 7.33 h

O=C(NCc1ccc(OCc2ccccc2)cc1)[C@@H]1CCCN1
Ki ([2]; read-out: Ki): 1720 nM
Activity [13]: 40%
Ki [1]: 20 nM
EC50 [17]: 73 nM

NCc1cccc(C(=O)NCc2ccc(OC(F)(F)F)cc2)c1
Ki [1]: 585 nM

O=C(NCc1ccc(C2CCCCC2)cc1)[C@@H]1CCCN1
Ki ([2]; read-out: Ki): 4120 nM
Activity [13]: 53%
Ki [1]: 4.4 nM
EC50 [17]: 88 nM

CC1(C)CCC(Oc2cc(F)c(CNC(=O)[C@@H]3CCCN3)cc2F)CC1
Ki ([4]; read-out: Ki): 13.7 nM
Activity [5]: 98%
EC50 [6]: 130 nM
EC50 [7]: > 10000 nM
Ki ([2]; read-out: Ki): 1670 nM
Activity [13]: 88%
Ki [1]: 1.8 nM
EC50 [17]: 1 nM

C[C@H]1CC[C@@H](Oc2c(F)cc(CNC(=O)[C@@H]3CCCN3)cc2F)CC1
Ki [4]: Not Active
EC50 [6]: 153 nM
EC50 [7]: > 10000 nM
Ki [2]: Not Active
Activity [13]: 46%
Ki [1]: 25 nM
EC50 [17]: 44 nM

O=C(NCc1ccc(-c2cc(Cl)cc(Cl)c2)cc1)[C@@H]1CCCN1
Activity [13]: 65%
Ki [1]: 8 nM
EC50 [17]: 183 nM

O=C(NCc1ccc(Oc2cccc(F)c2)cc1)[C@@H]1CCCN1
Ki ([2]; read-out: Ki): 2400 nM
Activity [13]: 46%
Ki [1]: 23 nM
EC50 [17]: 38 nM

O=C(NCc1ccc(OC(F)(F)F)cc1)[C@@H]1CCCN1
Ratio Ki [10]: > 1000
Ki ([2]; read-out: Ki): > 10000 nM
Ki [1]: 324 nM

COc1cc(OCC2CCCCC2)c(F)cc1CNC(=O)[C@@H]1CCCN1
Ki [4]: Not Active
EC50 [6]: 500 nM
EC50 [7]: 4030 nM
Ki [2]: Not Active
Activity [13]: 85%
Ki [1]: 1.7 nM
EC50 [17]: 4.97 nM

O=C(NCc1ccc(-c2ccc(Cl)cc2)cc1F)N1CCNCC1
Ki ([2]; read-out: Ki): 3500 nM
Ki [1]: 4 nM
